From US8518952B2, “6 substituted 2-heterocyclylamino pyrazine compounds as CHK-1 inhibitors” (Pfizer Inc., priority 2008, dated 2013)
Like-named read-outs stand apart in the source and are kept apart here.

Columns and labels:
CHK1 (kinase domain) = biological target: T1, CHK1 (kinase domain) (Homo sapiens, UniProt O14757); test: CHK1 Ki determination, spectrophotometric coupled (pyruvate kinase/lactate dehydrogenase) assay; type: biochemical; conditions: CHK-1 kinase domain; for Ki: 150 uM ATP, 125 uM Syntide 2
T1 construct: a solution containing 1 nM of CHK1 (kinase domain)
T1 sequence (O14757 9-265 limits assumed): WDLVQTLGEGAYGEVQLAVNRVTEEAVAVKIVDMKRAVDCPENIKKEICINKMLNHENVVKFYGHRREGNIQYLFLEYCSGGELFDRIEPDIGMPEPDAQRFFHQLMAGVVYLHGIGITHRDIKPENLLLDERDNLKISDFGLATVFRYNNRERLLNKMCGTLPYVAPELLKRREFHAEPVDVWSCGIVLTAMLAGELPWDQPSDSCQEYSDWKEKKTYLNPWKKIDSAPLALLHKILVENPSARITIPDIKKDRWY
Procedure: After 15 min pre-incubation, the enzymatic reaction was initiated by the simultaneous addition of Syntide 2 peptide (125 uM, final concentration) and ATP (150 uM, final concentration). The kinase-catalyzed production of ADP from ATP that accompanied phosphoryl transfer to the substrate Syntide 2 was coupled to the oxidation of NADH through the activities of pyruvate kinase and lactate dehydrogenase. NADH conversion to NAD^+ was monitored by the decrease in absorbance at 340 nm (ε=6.22 cm^−1 mM^−1) using a microplate reader from Molecular Devices Spectormax Plus (Sunnyvale, Calif.) or BMG LABTECH Inc (Offenburg, Germany).
The inhibition of CHK1 was analyzed by fitting the data to the following equation to determine Kiapp:
[formula] where [E]o and [I]o are the active enzyme and inhibitor concentration, respectively; Ki is the inhibition binding constant and Km the Michaelis-Menten constant for ATP; Vi and Vo are the rates of substrate oxidation in the presence of and in the absence of inhibitor, respectively. EC50 Determination (Cellular Assay)
(§1) Under the “Ki” column, data entries in the format of “%” are percent inhibition data where no Ki data is available. Data entry under the “EC50” column with an * are data obtained using Mia Paca-2 cells rather than HeLa cells. Data is not available where noted as n/a.

HeLa cells = test: Histone H3 (Ser10) phosphorylation ELISA, abrogation of camptothecin-induced G2 arrest (CHK-1 cellular assay); type: cell-based
Procedure: The Histone H3 phosphorylation ELISA assay detects cells entering mitosis and represents the primary in vitro cell-based assay used to measure the cellular potency of compounds in abrogating the G2 check point induced by DNA damage in HeLa cells or MiaPaCa cells. The candidate substances were assayed for potency in their ability to inhibit camptothecin-induced G2 arrest, as measured by an increase in Histone H3 phosphorylation on Ser10, a marker of entry into mitosis.
Tissue culture plates were seeded with HeLa cells or MiaPaCa Cells and allowed to attach overnight. The cells were then treated with camptothecin to induce DNA damage for 8 hrs. Candidate substances or diluent were then added in the presence of nocodozole for 16 hours. […] The fresh whole cell lysates were then thawed and added to the ELISA plate with shaking for 3 hours. Between all subsequent steps plates were washed 4 times with PBST. Biotinylated phospho Histone H3 (ser10) detection antibody was added for 1 hour, followed by addition of horseradish peroxidase-linked streptavidin secondary antibody for 1 hour. Color development of the antibody was performed with addition of TMB substrate and incubation for 2 minutes on a plate shaker. […] EC50 values were calculated by sigmoid curve fitting using a four-parameter analysis.
as §1

[1] = Homo sapiens, HeLa, HeLa cells, camptothecin 8 hrs, then compound with nocodozole 16 hours, read-out: EC50

| Structure (SMILES) | Ki (CHK1 (kinase domain)) [µM] | EC50 (HeLa cells; [1]) [µM] | EC50 (HeLa cells; HeLa cells, camptothecin 8 hrs, then compound with nocodozole 16 hours, read-out: EC50) [µM] | percent inhibition (where no Ki data is available) (CHK1 (kinase domain); inhibitor concentration not given) [%^] | EC50 (HeLa cells; Homo sapiens, HeLa) [µM] |
| --- | --- | --- | --- | --- | --- |
| F[C@@H]1CCNC[C@@H]1Nc1cncc(-c2cnc3ccccn23)n1 [Example 27, N-[(3S,4R)-4-fluoropiperidin-3-yl]-6-(imidazo[1,2-a]pyridin-3-yl)pyrazin-2-amine] | 0.0539 | 5.58 | – | – | – |
| c1cnn2c(-c3cncc(N[C@@H]4CCCNC4)n3)cnc2c1 [Example 60, 6-Imidazo[1,2-b]pyridazin-3-yl-N-[(3R)-piperidin-3-yl]pyrazin-2-amine] | 1 | 8.32 | – | – | – |
| c1ccc2c(c1)ncn2-c1cncc(N[C@@H]2CCCNC2)n1 [Example 1, 6-(1H-benzimidazol-1-yl)-N-[(3R)-piperidin-3-yl]pyrazin-2-amine] | 0.0132 | – | – | – | 0.0703 |
| C[C@@H]1NCCC[C@H]1Nc1cncc(-c2cnc3ccc(F)cn23)n1 [Example 168, 6-(6-fluoroimidazo[1,2-a]pyridin-3-yl)-N-[(2S,3R)-2-methylpiperidin-3-yl]pyrazin-2-amine] | 0.0227 | ≥ 10 | – | – | – |
| FC1(F)CCNC[C@H]1Nc1cncc(-c2cnc3ccccn23)n1 [Example 248, N-[(3R)-4,4-difluoropiperidin-3-yl]-6-(imidazo[1,2-a]pyridin-3-yl)pyrazin-2-amine] | 0.0453 | ≥ 10 | – | – | – |
| CCOc1ccc2ncn(-c3cncc(N[C@@H]4CCNC4)n3)c2c1 [Example 219, 6-(6-ethoxy-1H-benzimidazol-1-yl)-N-[(3R)-pyrrolidin-3-yl]pyrazin-2-amine] | – | 0.979 | – | 48.4 | – |
| CO[C@H]1CNC[C@H](Nc2cncc(-c3cnc4ccccn34)n2)C1 [Example 156, 6-(imidazo[1,2-a]pyridin-3-yl)-N-[(3R,5R)-5-methoxypiperidin-3-yl]pyrazin-2-amine] | 0.0284 | 0.314 | – | – | – |
| F[C@H]1CNC[C@@H]1Nc1cncc(-c2cnc3cc(Cl)ccn23)n1 [Example 65, 6-(7-chloroimidazo[1,2-a]pyridin-3-yl)-N-[(3S,4S)-4-fluoropyrrolidin-3-yl]pyrazin-2-amine] | 0.033 | 0.501 | – | – | – |
| Fc1ccc2ncc(-c3cncc(N[C@@H]4CCNC4)n3)n2c1 [Example 91, 6-(6-fluoroimidazo[1,2-a]pyridin-3-yl)-N-[(3R)-pyrrolidin-3-yl]pyrazin-2-amine] | 0.0187 | 0.497 | – | – | – |
| C[C@@H]1NCCC[C@H]1Nc1cncc(-c2cnc3ccccn23)n1 [Example 101, 6-imidazo[1,2-a]pyridin-3-yl-N-[(2S,3R)-2-methylpiperidin-3-yl]pyrazin-2-amine] | 0.0554 | ≥ 10 | – | – | – |
| C[C@H]1NCCC[C@@H]1Nc1cncc(-c2cnc3ccc(F)cn23)n1 [Example 172, 6-(6-fluoroimidazo[1,2-a]pyridin-3-yl)-N-[(2R,3S)-2-methylpiperidin-3-yl]pyrazin-2-amine] | 0.178 | ≥ 10 | – | – | – |
| FC(F)(F)CO[C@@H]1CNC[C@@H]1Nc1cncc(-c2cnc3ccccn23)n1 [Example 195, 6-(imidazo[1,2-a]pyridin-3-yl)-N-[(3S,4R)-4-(2,2,2-trifluoroethoxy)pyrrolidin-3-yl]pyrazin-2-amine] | 0.0734 | 0.0785 | – | – | – |
| Cc1cn2c(-c3cncc(N[C@@H]4CC[C@@H](C)NC4)n3)cnc2s1 (relative stereo) [Example 61, Trans 6-(2-Methylimidazo[2,1-b][1,3]thiazol-5-yl)-N-(6-methylpiperidin-3-yl)pyrazin-2-amine] | 0.0379 | 0.119 | – | – | – |
| Fc1ccc2ncc(-c3cncc(N[C@H]4CNC[C@@H]4F)n3)n2c1 [Example 92, 6-(6-fluoroimidazo[1,2-a]pyridin-3-yl)-N-[(3S,4S)-4-fluoropyrrolidin-3-yl]pyrazin-2-amine] | 0.0875 | ≥ 10 | – | – | – |

Continued, in another order:

| Ki (CHK1 (kinase domain)) [µM] | EC50 (HeLa cells; [1]) [µM] | EC50 (HeLa cells; HeLa cells, camptothecin 8 hrs, then compound with nocodozole 16 hours, read-out: EC50) [µM] | percent inhibition (where no Ki data is available) (CHK1 (kinase domain); inhibitor concentration not given) [%^] | Structure (SMILES) | EC50 (HeLa cells; Homo sapiens, HeLa) [µM] |
| --- | --- | --- | --- | --- | --- |
| 0.0117 | 0.142 | – | – | c1cn2c(-c3cncc(N[C@@H]4CCNC4)n3)cnc2s1 [Example 49, 6-Imidazo[2,1-b][1,3]thiazol-5-yl-N-[(3R)-pyrrolidin-3-yl]pyrazin-2-amine] | – |
| 0.0096 | 0.0956 | – | – | Cc1ccn2c(-c3cncc(N[C@@H]4CCNC4)n3)cnc2c1 [Example 51, 6-(7-Methylimidazo[1,2-a]pyridin-3-yl)-N-[(3R)-pyrrolidin-3-yl]pyrazin-2-amine] | – |
| 0.017 | 0.677 | – | – | FC(F)(F)c1ccc2ncc(-c3cncc(N[C@@H]4CCCNC4)n3)n2c1 [Example 39, N-[(3R)-piperidin-3-yl]-6-[6-(trifluoromethyl)imidazo[1,2-a]pyridin-3-yl]pyrazin-2-amine] | – |
| 0.007 | 0.0293 | – | – | CCc1ccn2c(-c3cncc(N[C@@H]4CCCNC4)n3)cnc2c1 [Example 42, 6-(7-Ethylimidazo[1,2-a]pyridin-3-yl)-N-[(3R)-piperidin-3-yl]pyrazin-2-amine] | – |
| 0.00111 | 0.119 | – | – | C[C@@H]1C[C@@H](Nc2cncc(-c3cnn4cc(Cl)ccc34)n2)CN1 [Example 143, 6-(6-chloropyrazolo[1,5-a]pyridin-3-yl)-N-[(3R,5R)-5-methylpyrrolidin-3-yl]pyrazin-2-amine] | – |
| 0.0102 | – | 0.047 | – | CCc1cn2c(-c3cncc(N[C@@H]4CCCN[C@@H]4C)n3)cnc2s1 [Example 108, 6-(2-ethylimidazo[2,1-b][1,3]thiazol-5-yl)-N-[(2R,3R)-2-methylpiperidin-3-yl]pyrazin-2-amine] | – |
| 0.00197 | 0.0203 | – | – | C[C@@H]1CNC[C@@H]1Nc1cncc(-c2cnn3cc(Cl)ccc23)n1 [Example 116, 6-(6-chloropyrazolo[1,5-a]pyridin-3-yl)-N-[(3R,4R)-4-methylpyrrolidin-3-yl]pyrazin-2-amine] | – |
| 0.0081 | 0.389 | – | – | C[C@@H]1C[C@@H](Nc2cncc(-c3cnn4ccccc34)n2)CN1 [Example 145, N-[(3R,5R)-5-methylpyrrolidin-3-yl]-6-pyrazolo[1,5-a]pyridin-3-ylpyrazin-2-amine] | – |
| 0.0136 | 0.00776 | – | – | CC(C)[C@@H]1CNC[C@@H]1Nc1cncc(-c2cnc3ccccn23)n1 [Example 194, 6-(imidazo[1,2-a]pyridin-3-yl)-N-[(3R,4R)-4-(propan-2-yl)pyrrolidin-3-yl]pyrazin-2-amine] | – |
| 0.0123 | 0.23 | – | – | CC(C)c1cn2c(-c3cncc(N[C@@H]4CC[C@H](C)NC4)n3)cnc2s1 [Example 114, 6-(2-isopropylimidazo[2,1-b][1,3]thiazol-5-yl)-N-[(3R,6S)-6-methylpiperidin-3-yl]pyrazin-2-amine] | – |
| 0.0174 | 0.148 | – | – | Cc1ccc2ncc(-c3cncc(N[C@@H]4CCNC4)n3)n2c1 [Example 50, 6-(6-Methylimidazo[1,2-a]pyridin-3-yl)-N-[(3R)-pyrrolidin-3-yl]pyrazin-2-amine] | – |
| 0.0155 | 0.0358 | – | – | COc1ccc2ncn(-c3cncc(N[C@@H]4CCNC4)n3)c2c1 [Example 216, 6-(6-methoxy-1H-benzimidazol-1-yl)-N-[(3R)-pyrrolidin-3-yl]pyrazin-2-amine] | – |
| 0.00179 | 0.172 | – | – | CCc1cn2c(-c3cncc(N[C@@H]4C[C@@H]5CN[C@H]4C5)n3)cnc2s1 [Example 128, (1S,4R,6R)-N-[6-(2-ethylimidazo[2,1-b][1,3]thiazol-5-yl)pyrazin-2-yl]-2-azabicyclo[2.2.1]heptan-6-amine] | – |
| 0.0033 | 0.169 | – | – | c1ccn2ncc(-c3cncc(N[C@@H]4CCNC4)n3)c2c1 [Example 115, 6-pyrazolo[1,5-a]pyridin-3-yl-N-[(3R)-pyrrolidin-3-yl]pyrazin-2-amine] | – |
| 0.00609 | 0.373 | – | – | CC(C)c1ccc2ncc(-c3cncc(N[C@@H]4CCNC4)n3)n2c1 [Example 57, 6-(6-Isopropylimidazo[1,2-a]pyridin-3-yl)-N-[(3R)-pyrrolidin-3-yl]pyrazin-2-amine] | – |
| 0.00512 | ≥ 10 | – | – | COc1ccc2c(c1)ncn2-c1cncc(N[C@@H]2CCNC2)n1 [Example 218, 6-(5-methoxy-1H-benzimidazol-1-yl)-N-[(3R)-pyrrolidin-3-yl]pyrazin-2-amine] | – |
